Source: article PMC7316778 (Nature Communications, 2020)
“And” between values parts separate entries of the source, which are not always exact repeats. Equal entries are not always repeated. Where two headings read alike, the source gives them in different places.

Experiments:
FES^S700C = FES^S700C (Homo sapiens, UniProt P07332, S700C); assay: FES Y713 autophosphorylation immunoblot, transfected HEK293T cells; type: cell-based; set-up: expressed in transfected cells; host or cells: HEK293T (transient, PEI); settings: WEL028 100 nM
Sequence of FES^S700C (P07332 whole entry S700C): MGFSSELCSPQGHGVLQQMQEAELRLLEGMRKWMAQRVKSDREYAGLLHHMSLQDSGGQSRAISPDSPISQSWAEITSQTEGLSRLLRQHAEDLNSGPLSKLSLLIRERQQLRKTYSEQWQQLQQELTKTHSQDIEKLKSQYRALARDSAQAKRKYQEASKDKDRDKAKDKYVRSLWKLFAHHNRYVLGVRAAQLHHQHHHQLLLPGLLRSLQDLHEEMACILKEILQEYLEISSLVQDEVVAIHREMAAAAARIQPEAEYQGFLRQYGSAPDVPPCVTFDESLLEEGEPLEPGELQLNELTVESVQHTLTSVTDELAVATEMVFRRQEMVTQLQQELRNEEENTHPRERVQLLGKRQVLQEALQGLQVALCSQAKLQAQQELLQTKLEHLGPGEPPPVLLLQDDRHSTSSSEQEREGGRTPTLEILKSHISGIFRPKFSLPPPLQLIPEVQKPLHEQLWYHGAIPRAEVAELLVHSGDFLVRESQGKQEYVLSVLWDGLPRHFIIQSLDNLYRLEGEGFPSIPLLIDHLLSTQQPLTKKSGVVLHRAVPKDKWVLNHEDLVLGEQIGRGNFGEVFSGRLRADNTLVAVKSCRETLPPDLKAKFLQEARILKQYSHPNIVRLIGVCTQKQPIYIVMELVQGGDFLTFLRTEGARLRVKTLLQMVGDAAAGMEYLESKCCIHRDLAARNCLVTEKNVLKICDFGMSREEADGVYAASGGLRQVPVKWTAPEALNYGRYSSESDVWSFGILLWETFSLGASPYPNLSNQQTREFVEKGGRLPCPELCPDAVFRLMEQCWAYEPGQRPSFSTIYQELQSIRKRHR
Method: Samples were resolved by SDS-PAGE as described above, but transferred to 0.2 μm polyvinylidene difluoride membranes by Trans-Blot Turbo™ Transfer system (Bio-Rad) directly after fluorescence scanning. Membranes were washed with TBS (50 mM Tris pH 7.5, 150 mM NaCl) and blocked with 5% milk in TBS-T (50 mM Tris pH 7.5, 150 mM NaCl, 0.05% Tween-20) for 1 h at rt.
Membranes were then incubated with primary antibody in 5% milk in TBS-T (FLAG, V5, β-actin; o/n at 4 °C) or washed three times with TBS-T, followed by incubation with primary antibody in 5% BSA in TBS-T (other antibodies, o/n at 4 °C). Membranes were washed three times with TBS-T, incubated with matching secondary antibody in 5% milk in TBS-T (1:5000, 1 h at rt) and then washed three times with TBS-T and once with TBS. Luminol development solution (10 mL of 1.4 mM luminol in 100 mM Tris pH 8.8 + 100 µL of 6.7 mM p-coumaric acid in DMSO + 3 µL of 30% (v/v) H2O2) or Clarity Max™ ECL Substrate (Bio-Rad) was added and chemiluminescence was detected on ChemiDoc™ MP System.

PKN1 (PRK1) = PKN1 (PRK1) (Homo sapiens, UniProt Q16512); assay: SelectScreen kinase assay
Sequence of PKN1 (PRK1) (Q16512 whole entry): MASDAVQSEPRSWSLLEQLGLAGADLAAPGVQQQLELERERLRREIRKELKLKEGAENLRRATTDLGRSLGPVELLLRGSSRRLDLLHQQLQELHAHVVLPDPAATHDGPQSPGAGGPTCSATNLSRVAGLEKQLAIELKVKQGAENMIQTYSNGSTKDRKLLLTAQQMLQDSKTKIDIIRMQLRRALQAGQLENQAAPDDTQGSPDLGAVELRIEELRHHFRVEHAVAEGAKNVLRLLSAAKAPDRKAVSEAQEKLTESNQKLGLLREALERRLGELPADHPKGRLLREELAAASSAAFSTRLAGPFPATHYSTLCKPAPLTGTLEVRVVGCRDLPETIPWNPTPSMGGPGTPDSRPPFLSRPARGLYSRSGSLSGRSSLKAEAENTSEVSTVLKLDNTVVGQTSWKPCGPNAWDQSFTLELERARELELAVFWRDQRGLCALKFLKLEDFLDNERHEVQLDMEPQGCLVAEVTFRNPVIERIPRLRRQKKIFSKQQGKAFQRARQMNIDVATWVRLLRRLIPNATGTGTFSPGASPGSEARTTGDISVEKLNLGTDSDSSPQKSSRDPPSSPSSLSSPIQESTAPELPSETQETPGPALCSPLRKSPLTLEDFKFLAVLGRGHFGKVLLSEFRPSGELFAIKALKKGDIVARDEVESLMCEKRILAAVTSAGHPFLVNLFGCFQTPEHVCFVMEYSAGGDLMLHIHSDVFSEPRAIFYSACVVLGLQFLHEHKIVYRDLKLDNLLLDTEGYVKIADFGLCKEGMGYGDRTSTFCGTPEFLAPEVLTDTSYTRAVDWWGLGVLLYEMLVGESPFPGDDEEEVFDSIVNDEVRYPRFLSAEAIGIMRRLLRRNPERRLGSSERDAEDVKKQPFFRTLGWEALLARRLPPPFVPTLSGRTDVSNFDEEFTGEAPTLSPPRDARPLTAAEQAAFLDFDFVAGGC
Method: (§1) Selectivity profiling assays were performed by the Invitrogen SelectScreen™ Services. […] The concentration of ATP was selected to be equal to the KM, unless indicated otherwise.

ERBB4 (HER4) = ERBB4 (HER4) (Homo sapiens, UniProt Q15303); assay: SelectScreen kinase assay; settings: for Inhibition at 1 µM (%): ERBB4 (HER4), ZLYTE, ATP Km app
Sequence of ERBB4 (HER4) (Q15303 26-1308): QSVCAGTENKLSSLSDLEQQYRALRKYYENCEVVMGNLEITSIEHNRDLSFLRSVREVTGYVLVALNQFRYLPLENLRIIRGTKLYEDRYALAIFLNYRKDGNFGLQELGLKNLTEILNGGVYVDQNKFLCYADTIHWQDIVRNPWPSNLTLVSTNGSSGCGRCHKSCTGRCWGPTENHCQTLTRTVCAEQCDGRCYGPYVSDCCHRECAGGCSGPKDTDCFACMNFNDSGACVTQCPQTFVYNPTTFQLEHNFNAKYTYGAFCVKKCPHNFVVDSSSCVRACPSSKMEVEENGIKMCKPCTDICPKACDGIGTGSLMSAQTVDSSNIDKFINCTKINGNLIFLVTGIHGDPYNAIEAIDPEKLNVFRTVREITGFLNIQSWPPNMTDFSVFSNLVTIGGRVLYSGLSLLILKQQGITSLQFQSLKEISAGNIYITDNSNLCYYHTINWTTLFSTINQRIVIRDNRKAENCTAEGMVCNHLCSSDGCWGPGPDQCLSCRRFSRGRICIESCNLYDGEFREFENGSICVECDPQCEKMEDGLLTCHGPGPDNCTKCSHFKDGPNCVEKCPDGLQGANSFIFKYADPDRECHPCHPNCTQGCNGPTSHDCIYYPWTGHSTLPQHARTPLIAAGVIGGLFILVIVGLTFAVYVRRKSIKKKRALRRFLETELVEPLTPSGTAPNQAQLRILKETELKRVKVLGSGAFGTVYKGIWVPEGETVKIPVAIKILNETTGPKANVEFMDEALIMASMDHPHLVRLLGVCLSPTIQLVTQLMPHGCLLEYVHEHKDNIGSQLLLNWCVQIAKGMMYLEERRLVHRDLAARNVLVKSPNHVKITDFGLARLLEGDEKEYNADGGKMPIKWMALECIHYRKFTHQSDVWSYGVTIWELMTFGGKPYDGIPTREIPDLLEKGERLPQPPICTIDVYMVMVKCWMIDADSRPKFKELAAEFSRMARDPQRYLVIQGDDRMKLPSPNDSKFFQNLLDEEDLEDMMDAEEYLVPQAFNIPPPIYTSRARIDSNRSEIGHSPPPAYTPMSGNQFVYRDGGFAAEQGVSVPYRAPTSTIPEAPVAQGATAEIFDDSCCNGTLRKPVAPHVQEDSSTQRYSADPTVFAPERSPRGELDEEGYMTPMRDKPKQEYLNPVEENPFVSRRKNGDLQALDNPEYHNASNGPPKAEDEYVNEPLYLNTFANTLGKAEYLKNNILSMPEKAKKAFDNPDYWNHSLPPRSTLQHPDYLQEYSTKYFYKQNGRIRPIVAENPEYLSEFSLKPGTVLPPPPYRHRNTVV
Method: as §1

[1] = target: T1, FES^S700C-SYK interaction (Homo sapiens, UniProt P07332, S700C); assay: Co-immunoprecipitation in co-transfected U2OS cells; type: cell-based; settings: WEL028 200 nM, 1 h
T1 construct: Full-length human cDNA encoding FES and PAK4 was obtained from Source Bioscience; expressed in transfected cells; host or cells: U2OS (human osteosarcoma)
T1 sequence (P07332 whole entry S700C): as the sequence (P07332 whole entry S700C) above
Method: U2OS cells were co-transfected with FLAG-tagged FES and V5-tagged SYK and grown for 48 h as described above, followed by incubation with vehicle or WEL028 (200 nM) for 1 h. Cells were then washed with PBS and collected by scraping in IP-buffer (20 mM Tris-HCl pH 7.5, 150 mM NaCl, 1% Triton X-100 supplemented with […] Halt™ phosphatase and protease inhibitor cocktail (Thermo Fisher)). Cells were lysed by sonication on ice (three cycles of 10′′ on, 10′′ off at 25% maximum amplitude), centrifuged (14,000g, 10 min, 4 °C). The clear lysate was diluted to 1 mg/mL in IP-buffer and subjected to immunoprecipitation using Dynabeads™ Protein G Immunoprecipitation kit (Thermo Fisher) following manufacturer’s protocol. Briefly, anti-FLAG M2 antibody (1:100, Sigma Aldrich, F3156) was incubated with beads with gentle rotation (10 min, rt), after which lysate (500 µL of 1 mg/mL) was added and incubated (1 h, 4 °C). Beads were washed three times, transferred to clean tubes and eluted by suspension in 2× Laemmli buffer (50 µL, 10 min, 70 °C). Samples (10 µL per lane) were resolved by SDS-PAGE and immunoblotted using anti-V5 or anti-FLAG antibodies. Immunoprecipitations were performed in three independent replicates.

CDK5 (Inactive) = CDK5 (Inactive) (Homo sapiens, UniProt Q00535); assay: SelectScreen kinase assay
Sequence of CDK5 (Inactive) (Q00535 whole entry): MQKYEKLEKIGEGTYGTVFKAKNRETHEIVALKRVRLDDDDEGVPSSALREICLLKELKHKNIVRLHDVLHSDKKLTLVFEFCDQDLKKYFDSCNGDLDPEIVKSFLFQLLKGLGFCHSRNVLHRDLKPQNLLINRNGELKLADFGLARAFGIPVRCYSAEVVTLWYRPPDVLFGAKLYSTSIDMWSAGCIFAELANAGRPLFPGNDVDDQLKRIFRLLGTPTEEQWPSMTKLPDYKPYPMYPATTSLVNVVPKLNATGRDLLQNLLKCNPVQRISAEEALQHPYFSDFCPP
Method: as §1

CAMK4 (CaMKIV) = CAMK4 (CaMKIV) (Homo sapiens, UniProt Q16566); assay: SelectScreen kinase assay
Sequence of CAMK4 (CaMKIV) (Q16566 whole entry): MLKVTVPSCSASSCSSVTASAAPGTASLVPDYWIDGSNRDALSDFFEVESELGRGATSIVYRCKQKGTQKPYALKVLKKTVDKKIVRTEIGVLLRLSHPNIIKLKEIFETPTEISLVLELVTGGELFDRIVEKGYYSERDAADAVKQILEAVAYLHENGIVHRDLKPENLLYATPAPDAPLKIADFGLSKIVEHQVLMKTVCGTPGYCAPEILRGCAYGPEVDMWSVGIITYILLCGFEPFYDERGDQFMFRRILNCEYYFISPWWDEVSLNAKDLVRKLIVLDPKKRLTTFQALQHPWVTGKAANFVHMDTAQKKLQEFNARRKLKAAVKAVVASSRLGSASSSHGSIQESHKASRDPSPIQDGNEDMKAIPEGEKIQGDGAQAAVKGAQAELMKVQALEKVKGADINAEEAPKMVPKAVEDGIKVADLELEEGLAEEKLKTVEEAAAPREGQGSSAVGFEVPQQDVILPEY
Method: as §1

MAPKAPK5 (PRAK) = target: T2, MAPKAPK5 (PRAK) (Homo sapiens, UniProt Q8IW41); assay: SelectScreen kinase assay
T2 sequence (Q8IW41 1-473): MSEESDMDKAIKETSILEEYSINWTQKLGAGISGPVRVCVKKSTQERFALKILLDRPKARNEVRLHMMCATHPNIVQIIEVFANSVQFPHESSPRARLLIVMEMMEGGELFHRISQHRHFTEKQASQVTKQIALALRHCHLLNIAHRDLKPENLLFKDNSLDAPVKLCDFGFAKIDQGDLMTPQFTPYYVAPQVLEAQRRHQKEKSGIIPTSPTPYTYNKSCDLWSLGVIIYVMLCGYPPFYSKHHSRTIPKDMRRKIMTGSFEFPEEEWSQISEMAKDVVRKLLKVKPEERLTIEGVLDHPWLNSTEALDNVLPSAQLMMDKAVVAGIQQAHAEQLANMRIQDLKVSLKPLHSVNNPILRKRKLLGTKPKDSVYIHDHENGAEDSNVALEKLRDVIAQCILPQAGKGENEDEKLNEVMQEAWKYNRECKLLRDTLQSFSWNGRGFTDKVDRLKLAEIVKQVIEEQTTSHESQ
Method: as §1

[2] = 1 h, 1 μM WEL028, 1 h preincubation

## C#CCOc1ccc(Nc2ncc(Cl)c(Nc3ccccc3NC(=O)C=C)n2)c(OC)c1 [Compound 6]
FES^S700C; Fig. 4i, anti-phospho-FES Y713 band intensity, replicates, normalized to vehicle
  Relative FES labeling (%): 6.91% and 5.589% and 0.4481%
FES^S700C
  Autophosphorylation of Tyr713: fully abolished autophosphorylation
PKN1 (PRK1); [2]
  inhibition at 1 µM: 7%
PKN1 (PRK1); PKN1 (PRK1), 1 µM, ZLYTE, ATP Km app, listed as WEL028, 1 µM
  Inhibition at 1 µM (%): 5%
PKN1 (PRK1); read-out: Inhibition at 1 µM (%), PKN1 (PRK1), 1 µM, ZLYTE, ATP Km app
  inhibition at 1 µM: 8%
ERBB4 (HER4); [2]
  inhibition at 1 µM: 8%
ERBB4 (HER4)
  Inhibition at 1 µM (%): 11%
ERBB4 (HER4); listed as WEL028, 1 µM
  Inhibition at 1 µM (%): 5%
[1]
  Co-precipitation of SYK with FES: inhibited the co-precipitation of SYK with FES
CDK5 (Inactive); [2]
  inhibition at 1 µM: 3%
CDK5 (Inactive); CDK5 (Inactive), 1 µM, LanthaScreen Binding, listed as WEL028, 1 µM
  Inhibition at 1 µM (%): 2%
CDK5 (Inactive); read-out: Inhibition at 1 µM (%), CDK5 (Inactive), 1 µM, LanthaScreen Binding
  inhibition at 1 µM: 3%
CAMK4 (CaMKIV); [2]
  inhibition at 1 µM: -5%
CAMK4 (CaMKIV); CAMK4 (CaMKIV), 1 µM, ZLYTE, ATP Km app
  Inhibition at 1 µM (%): -15%
MAPKAPK5 (PRAK)
  IC50: 0.501 µM
MAPKAPK5 (PRAK); [2]
  inhibition at 1 µM: 66%
MAPKAPK5 (PRAK); 1 h, log[inhibitor] (M) -5.00, ZLYTE, ATP Km app
  inhibition at 10 µM: 95%
MAPKAPK5 (PRAK); 1 h, log[inhibitor] (M) -5.48, ZLYTE, ATP Km app
  inhibition at 3.31 µM: 94%
MAPKAPK5 (PRAK); 1 h, log[inhibitor] (M) -5.95, ZLYTE, ATP Km app
  inhibition at 1.12 µM: 76%
MAPKAPK5 (PRAK); 1 h, log[inhibitor] (M) -6.43, ZLYTE, ATP Km app
  inhibition at 0.372 µM: 36%
MAPKAPK5 (PRAK); 1 h, log[inhibitor] (M) -7.39, ZLYTE, ATP Km app
  inhibition at 0.04074 µM: 13%
MAPKAPK5 (PRAK); 1 h, log[inhibitor] (M) -[…], ZLYTE, ATP Km app
  inhibition at 0.004571 µM: 4%
MAPKAPK5 (PRAK); IC50 on that kinase divided by IC50 on FES^S700C
  Apparent fold selectivity: 112 fold
MAPKAPK5 (PRAK); MAPKAPK5 (PRAK), 1 µM, ZLYTE, ATP Km app, listed as WEL028, 1 µM
  Inhibition at 1 µM (%): 70%
MAPKAPK5 (PRAK); read-out: Inhibition at 1 µM (%), MAPKAPK5 (PRAK), 1 µM, ZLYTE, ATP Km app
  inhibition at 1 µM: 62%
